Assay results from PubChem BioAssay AID179 (DTP/NCI, 2004).
Where “and” joins values, the source holds several entries; their conditions need not be identical. Equal values may be shown once. Calls of active or inactive are those of the source.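 How the source made its calls: active means compounds giving half or more protection of infected cells from virus-caused growth loss, again on retest; inactive means the rest.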 Where a SMILES comes first, the peptide text is derived from it. [ ]: non-standard residue; d: D form. The star is where a group is joined. NMeF = CN[CH](Cc1ccccc1)C(=O)O; NMeV = CN[CH](C(=O)O)C(C)C; Boc = CC(C)(C)OC(=O)*; OBn = c1ccc(CO*)cc1

Tested on: CEM cells HIV-1 protection, formazan growth assay
Assay: NCI AIDS Antiviral Assay
Settings: for IC50: measured here: growth of uninfected CEM cells
Method in brief: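 Human CEM cells, uninfected and HIV-1-infected, received five drug concentrations, and growth was read by soluble formazan assay. Compounds giving at least 50% protection were retested; reproducible 100% protection defined confirmed active.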

SMILES | EC50 | IC50 | outcome
O=C1OC(OC/C(Br)=C(/Br)COC2OC(=O)C(Cl)=C2Cl)C(Cl)=C1Cl (configuration not stated) | > 200 µM | 3.47 µM | 
COc1cc(C(=O)O)c(C(=O)c2ccc([N+](=O)[O-])cc2)cc1OC | > 200 µM | > 200 µM | 
CCN(CC)CCn1c(C)nc2c1C(=O)c1nc(C)n(CCN(CC)CC)c1C2=O | > 200 µM | 5.75 µM | 
O=S(O)CCCCSSCC(O)C(O)CSSCCCCS(=O)O (configuration not stated) |  |  | inactive
CC(C)C(NC(=O)OC(C)(C)C)C(=O)N(C)C(Cc1ccccc1)C(=O)N(C)C(C(=O)N(C)C(C(=O)OCc1ccccc1)C(C)C)C(C)C (configuration not stated) (Boc-V[NMeF][NMeV][NMeV]-OBn; configuration not given here) | > 200 µM | > 200 µM | 
O=C1c2ccccc2C(=O)N1CCc1ncc[nH]1 | > 200 µM | > 200 µM | 
Cc1ccc(S(=O)(=O)OCC23CCC(C4CC42)C2CC23)cc1 (configuration not stated) | > 100 µM | 77.6 µM | 
CC(=O)[C@@]12OC(C)(c3ccco3)O[C@@H]1C[C@H]1[C@@H]3CCC4=CC(=O)CC[C@]4(C)[C@H]3CC[C@@]12C (some centres not stated) | > 200 µM | 158 µM | 
Cc1ccc(N=NC(=O)NNc2ccc(C)cc2Br)c(Br)c1 | > 200 µM | 35.5 µM | 
O=C(Nc1ccc(NC(=O)c2ccc(C3=NCCN3)cc2)cc1)Nc1ccc(C2=NCCN2)cc1 | > 200 µM | 50.1 µM | 
COC(=O)c1ccc(/C=C2\CCc3ccccc3C2=O)cc1 | > 200 µM | > 200 µM | 
CCN(CC)C(=S)S[Se](SC(=S)N(CC)CC)(SC(=S)N(CC)CC)SC(=S)N(CC)CC | > 200 µM | 0.794 µM | 
CC(=O)OCC(=O)[C@@]1(O)CC[C@H]2[C@@H]3CCC4=CC(=O)C[C@H](SC(C)=O)[C@]4(C)[C@H]3CC[C@@]21C | > 200 µM | 117 µM | 
O=c1ccn(/C=C(\c2ccccc2)S(=O)Cc2ccccc2)c(=S)[nH]1 (configuration not stated) |  |  | inactive
CN=c1ss/c(=N\C(=S)N(C)C)n1C |  |  | inactive
COC1CCC(=O)N1CN(C(C)=O)c1ccc(C)cc1 (configuration not stated) |  |  | inactive
CN1C2CC(C#N)C1C=CC2=O (configuration not stated) | > 200 µM | 32.4 µM and 107 µM | 
Cc1cc(S(=O)(=O)/N=C(/NN)Nc2ccc(Cl)cc2)c(S)cc1Cl | > 200 µM | 10 µM | 
CC1(C)OC(=O)C(=C2CC(c3ccccc3)c3ccccc32)C(=O)O1 (configuration not stated) |  |  | inactive
Cc1cc(=O)oc2c(O)c(O)ccc12 | > 263 µM | 141 µM | 
O=c1[nH]c(=O)n(C2C=CC(CO)O2)cc1COCC(F)(F)F (configuration not stated) | 3.02 µM | 105 µM | 
Nc1cc(I)c2cccnc2c1O | > 209 µM | 1.26 µM | 

SMILES | EC50 | IC50 | outcome
C[N+](C)([O-])CCCNc1c2ccccc2nc2cccc([N+](=O)[O-])c12 | > 20 µM | 0.186 µM | 
C(=N/N=C(N/N=C/C1CNCCN1)N/N=C/C1CNCCN1)/C1CNCCN1 (configuration not stated) | > 631 µM | > 631 µM | 
OC(CC(O)(C(F)(F)F)C(F)(F)F)c1ccc(C(O)CC(O)(C(F)(F)F)C(F)(F)F)cc1 (configuration not stated) | > 200 µM | 10.2 µM | 
CCCCN(S(=O)(=O)c1ccccc1)S(=O)(=O)c1ccccc1 | > 200 µM | > 200 µM | 
O=C1C2CN(Cc3ccccc3)CC1CN(Cc1ccccc1)C2 | > 214 µM | 141 µM | 
O=CN1CCN(C=O)C(O)C1O (configuration not stated) | > 200 µM | > 200 µM | 
O=C(c1ccccc1)N1C2CCC1C(C(F)(F)F)=C2C(F)(F)F |  |  | inactive
C[N+]1=C(c2ccc[n+](C)c2/C=N/O)OCC1(C)C | > 501 µM | > 501 µM | 
COc1ccc(/C=C\c2cc(OC)c(OC)c(OC)c2)cc1OC(=O)C(N)CCC(=O)O (configuration not stated) | > 447 µM |  | 
CCOC(=O)NC(=O)c1cn(CCCOC(=O)CCCCCCCCC(=O)OCCCn2cc(C(=O)NC(=O)OCC)c(=O)[nH]c2=O)c(=O)[nH]c1=O |  |  | inactive
CC1C2CC(C/C2=N/O)C1(C)C (configuration not stated) | > 1480 µM | 437 µM | 
CC1=C(c2cc(C(=O)Nc3cccc(Cl)c3)nc(NC#N)n2)Sc2ccccc2N1 |  |  | inactive
NCCN1CCCCCc2ccccc21 | > 200 µM | 123 µM | 
CC[C@H]1OC(=O)[C@H](C)[C@@H](OC2CC(C)(OC)C(O)C(C)O2)[C@H](C)[C@@H](OC2OC(C)CC(N(C)C)C2OC(=O)CCC2CCCC2)[C@](C)(O)C[C@@H](C)C(=O)[C@H](C)[C@@H](O)[C@]1(C)O (some centres not stated) | > 100 µM | 40.7 µM | 
C=Cc1ccncc1 | > 200 µM | > 200 µM | 
O=Nc1ccc2ccccc2c1N=Nc1ccccc1C(=O)O | > 200 µM | 182 µM | 
Nc1ccn(C2SC(CO)CC2F)c(=O)n1 (configuration not stated) | > 25.1 µM | > 25.1 µM | 
O=C(/C=C/c1ccccc1)NC1C=Nc2ccc([N+](=O)[O-])cc2NC1=O (configuration not stated) | > 102 µM | 93.3 µM | 
COc1cc2c3c(c1OC)-c1c(ccc4c1OCO4)CC3(C#N)N(C(=O)c1ccccc1)CC2 (configuration not stated) |  |  | inactive
Cc1cc2c(c(=O)n1C)SCC2 | > 200 µM | > 200 µM | 
Nc1c(Cl)cccc1-c1c[nH]c(Cl)c1Cl | > 138 µM | 72.4 µM | 
O=C(c1ccccc1)N1OCCC1Nc1ccc(Br)cc1 (configuration not stated) |  |  | inactive

SMILES | EC50 | IC50 | outcome
OC(c1ccccn1)C1CNc2ccccc21 (configuration not stated) |  |  | inactive
COC(=O)C(NC(=O)C12CCC(C)(C(=O)O1)C2(C)C)c1cc(C(C)(C)C)c(O)c(C(C)(C)C)c1 (configuration not stated) | > 20 µM | > 20 µM | 
Nc1ncnc2c1ncn2C(=O)NC12CC3CC(CC(C3)C1)C2 | > 100 µM | > 100 µM | 
CCOC(=O)c1oc2cc(O)ccc2c(=O)c1-c1ccc(OC)c(OC)c1 | > 200 µM | 51.3 µM | 
O=C(NO)c1ccc(OCc2cccc(Cl)c2)cc1 | > 200 µM | 10 µM | 
Cc1ccc(N2C(=O)C(Cl)=C(Cl)C2=O)cc1 |  |  | inactive
OC(C/C=N/N=C/CC(O)(C(F)(F)Cl)C(F)(F)Cl)(C(F)(F)Cl)C(F)(F)Cl | > 200 µM | 89.1 µM | 
CNS(=O)(=O)NNS(=O)(=O)c1ccc(Br)cc1 | > 75.9 µM | > 75.9 µM | 
CC(C)(C)NC(=O)Nc1ccccn1 | > 200 µM | > 200 µM | 
CCOc1ccc(NC(=O)C(=O)CC(=O)c2c(C)n([O-])c3ccccc3[n+]2=O)cc1 | > 6.61 µM | > 6.61 µM | 
O=c1oc2ccccc2c(O)c1C(C/C(=N/O)c1ccccc1)c1ccccc1 (configuration not stated) | > 200 µM | 70.8 µM | 
CSc1nc2c(nc(N)n2C2OC(CO)C(O)C(O)C2O)c(=O)n1C (configuration not stated) |  |  | inactive
CN(C)CCNC(=O)c1cc([N+](=O)[O-])cn1C | > 200 µM | > 200 µM | 
N#Cc1c(N)c(C(=O)O)nn(-c2cccc(C(F)(F)F)c2)c1=O |  |  | inactive
O=C(NCC1(O)N=C(c2ccc(F)cc2)c2ccsc2-n2cccc21)c1ccc(Cl)cc1Cl (configuration not stated) | > 200 µM | 18.2 µM | 
CC(NP(=O)(c1ccccc1)c1ccccc1)c1ccccc1 (configuration not stated) | > 200 µM | > 200 µM | 
Cc1cccc(NS(=O)(=O)c2ccc3c(c2)OCCOCCOCCOCCO3)c1 | > 200 µM | 158 µM | 
CCCCCCCCCCCC(=O)OCCOCCOCCOCCOCCOCc1ccc(OC)cc1 |  |  | inactive
N#CC(C(=O)C(N)=O)c1ccccc1Cl (configuration not stated) | > 427 µM | > 427 µM | 
O=C1c2cccc3cc([N+](=O)[O-])cc(c23)C(=O)N1Nc1ccc([N+](=O)[O-])cc1[N+](=O)[O-] | > 200 µM | 9.77 µM | 
COC(=O)C1C(OC(=O)c2ccccc2)CC2CCC1N2C(N)=O (configuration not stated) | > 200 µM | > 200 µM | 
O=[N+]([O-])c1cccc(SSc2cccc([N+](=O)[O-])c2)c1 | > 200 µM and 20.4 µM | 4.57 µM and 34.7 µM and 6.31 µM | 

SMILES | EC50 | IC50 | outcome
O=C(N=Nc1c(O)[nH]c2ccccc12)C(O)(c1ccccc1)c1ccccc1 | > 200 µM | 39.8 µM | 
CCCCOC(=Nc1ccccc1)N(c1ccccc1)c1ccccc1 | > 200 µM | 36.3 µM | 
C/C=C1\CN(C(=O)OC(C)(C)C)C1C(=O)OC(C)(C)C (configuration not stated) | > 200 µM | 85.1 µM | 
O=C(Nc1ccc(/C=C\c2ccc(NC(=O)c3cc(S(=O)(=O)O)c4cccnc4c3O)cc2S(=O)(=O)O)c(S(=O)(=O)O)c1)c1cc(S(=O)(=O)O)c2cccnc2c1O | > 100 µM | > 100 µM | 
C/C(Sc1ccccc1)=C1/CCCN(Cc2ccccc2)C1 | > 200 µM | 74.1 µM | 
O/N=C1/CCCc2nonc21 | > 200 µM | > 200 µM | 
C/C(=N\NC(N)=O)c1ccccc1 |  |  | inactive
CCOc1ccccc1-n1c(-c2ccc([N+](=O)[O-])cc2)csc1=NC(=O)c1cccc([N+](=O)[O-])c1 | > 200 µM | 186 µM | 
COc1cc(/C=C2\C(=O)N(c3cccc(NC(C)=O)c3)C(c3ccccc3)S2(=O)=O)cc(OC)c1OC (configuration not stated) | > 200 µM | 87.1 µM | 
COc1cccc2c(Nc3ccc(S(=O)(=O)NC(C)=O)cc3)c3ccc([N+](=O)[O-])cc3nc12 | > 141 µM | 95.5 µM | 
Cc1cn(C2CC(OC(c3ccccc3)(c3ccccc3)c3ccccc3)C(COC(c3ccccc3)(c3ccccc3)c3ccccc3)O2)c(=O)[nH]c1=O (configuration not stated) | > 200 µM | > 200 µM | 
O=c1c2cncnc2sc2nc3ccccc3n12 | > 200 µM | > 200 µM | 
COc1cccc(N2C(=O)/C(=C/c3ccc(N(CCC#N)CCC#N)cc3)N=C2c2cc([N+](=O)[O-])ccc2Cl)c1 | > 9.33 µM | > 9.33 µM | 
CN(C)[C@@H]1C(=O)C(C(=O)NCNc2cccc(C(=O)O)c2C(=O)O)=C(O)[C@@]2(O)C(=O)C3=C(O)c4c(O)cccc4[C@@](C)(O)[C@H]3C[C@@H]12 | > 5.89 µM | > 5.89 µM | 
O=S(=O)(/N=S(/Nc1ccccc1)C(F)(F)Cl)c1ccccc1 (configuration not stated) | > 200 µM | > 200 µM | 
O=C1CCC2(c3ccc(Cl)cc3)Nc3ccccc3N12 (configuration not stated) |  |  | inactive
CC(=O)Nc1cc(C(=O)Nc2cc(C(=O)Nc3cc(C(=O)Nc4cc(C(=O)Nc5cc(C(=O)NCCC(=O)NCCCN(C)C)n(C)c5)n(C)c4)n(C)c3)n(C)c2)n(C)c1 | > 174 µM | 26.9 µM | 
O=C(/C=C/c1ccc([N+](=O)[O-])cc1)c1ccc(NCc2nc3ccccc3[nH]2)cc1 | > 13.2 µM | > 13.2 µM | 
Cc1c(NC(=S)NN)c(=O)n(-c2ccccc2)n1C | > 200 µM | > 200 µM | 
